ChEMBL document CHEMBL6114996, “Design, synthesis, and biological evaluation of β-carboline derivatives as ABCB1 inhibitors for reversing multidrug resistance” (Eur J Med Chem, 2025)

Tests used:
[1] = Reversal fold, ratio of PTX IC50 to PTX IC50 in presence of test compound for reversal of multi-drug resistance in human SW620/AD300 cells incubated for 72 hrs by CCK-8 assay (reference value: 1.0); type: functional
[2] = system: SW620/AD300; test: Cytotoxicity against human SW620/AD300 cells assessed as reduction in cell viability at 20 uM incubated for 72 hrs by CCK-8 assay relative to control; type: functional
[3] = Toxicity in male BALB/c nude mouse xenografted with ABCB1 overexpressing human SW620/AD300 cells assessed as cell necrosis in spleen at 50 mg/kg administered every 3 days and measured after 14 days by H and E staining based analysis; type: organism-based; conditions: in vivo, 336 h, time 14 day
[4] = target: T1, ATP-dependent translocase ABCB1 (Homo sapiens, UniProt P08183); test: Inhibition of ABCB1 in human SW620/AD300 cells assessed as accumulation of Rhodamine-123 by measuring fluorescence intensity incubated for 24 hrs by flow cytometric analysis; type: cell-based; conditions: sw620/ad300, 24 h, at 5 to 20 µM, dose 5-20 µM
T1 sequence (P08183 whole entry): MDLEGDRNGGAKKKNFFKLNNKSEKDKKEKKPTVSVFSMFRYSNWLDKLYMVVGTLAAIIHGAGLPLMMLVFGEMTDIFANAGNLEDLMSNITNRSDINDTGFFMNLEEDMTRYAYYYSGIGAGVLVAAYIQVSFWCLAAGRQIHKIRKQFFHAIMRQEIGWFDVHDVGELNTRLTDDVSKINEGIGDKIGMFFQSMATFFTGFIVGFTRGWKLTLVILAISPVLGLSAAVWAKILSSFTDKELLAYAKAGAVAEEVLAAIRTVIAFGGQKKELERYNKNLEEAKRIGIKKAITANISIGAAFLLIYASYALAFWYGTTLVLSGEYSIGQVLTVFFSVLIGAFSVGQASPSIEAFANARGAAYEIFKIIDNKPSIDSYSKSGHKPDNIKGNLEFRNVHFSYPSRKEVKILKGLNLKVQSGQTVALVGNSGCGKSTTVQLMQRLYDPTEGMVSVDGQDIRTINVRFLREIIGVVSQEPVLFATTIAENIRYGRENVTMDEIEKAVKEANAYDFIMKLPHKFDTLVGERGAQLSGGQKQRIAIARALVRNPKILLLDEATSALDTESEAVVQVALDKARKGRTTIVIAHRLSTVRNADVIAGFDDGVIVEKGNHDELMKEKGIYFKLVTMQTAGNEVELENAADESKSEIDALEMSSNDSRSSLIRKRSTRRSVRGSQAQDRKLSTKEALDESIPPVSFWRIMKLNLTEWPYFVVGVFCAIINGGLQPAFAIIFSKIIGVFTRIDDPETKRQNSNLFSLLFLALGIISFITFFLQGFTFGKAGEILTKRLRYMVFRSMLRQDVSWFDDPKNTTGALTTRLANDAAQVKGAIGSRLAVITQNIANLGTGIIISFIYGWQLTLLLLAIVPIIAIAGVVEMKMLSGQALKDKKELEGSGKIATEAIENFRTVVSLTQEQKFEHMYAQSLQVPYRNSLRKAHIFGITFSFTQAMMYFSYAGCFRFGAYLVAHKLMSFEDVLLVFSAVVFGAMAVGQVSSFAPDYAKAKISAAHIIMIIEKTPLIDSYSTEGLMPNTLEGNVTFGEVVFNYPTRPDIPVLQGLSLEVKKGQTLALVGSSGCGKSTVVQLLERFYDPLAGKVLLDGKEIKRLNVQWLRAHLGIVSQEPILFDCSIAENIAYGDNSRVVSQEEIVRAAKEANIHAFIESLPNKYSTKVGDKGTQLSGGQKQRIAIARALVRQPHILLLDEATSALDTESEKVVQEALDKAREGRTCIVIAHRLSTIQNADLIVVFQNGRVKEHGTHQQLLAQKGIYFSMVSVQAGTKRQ

[5] = Toxicity in male BALB/c nude mouse xenografted with ABCB1 overexpressing human SW620/AD300 cells assessed as cell necrosis in kidney measured after 14 days in presence of paclitaxel by H and E staining based analysis; type: tissue-based; conditions: 336 h, time 14 day
[6] = target: T1, ATP-dependent translocase ABCB1; test: Binding affinity to ABCB1 (unknown origin) in human SW620/AD300 cells assessed as thermal stabilization at 20 uM at 40 to 65 degreeC incubated for 30 mins by CETSA; type: cell-based; conditions: sw620/ad300, 0.5 h
[7] = Toxicity in male BALB/c nude mouse xenografted with ABCB1 overexpressing human SW620/AD300 cells assessed as body weight loss measured after 14 days in presence of paclitaxel; conditions: 336 h, time 14 day
[8] = Toxicity in male BALB/c nude mouse xenografted with ABCB1 overexpressing human SW620/AD300 cells assessed as cell necrosis in liver at 50 mg/kg administered every 3 days and measured after 14 days by H and E staining based analysis; type: organism-based; conditions: in vivo, 336 h, time 14 day
[9] = Toxicity in male BALB/c nude mouse xenografted with ABCB1 overexpressing human SW620/AD300 cells assessed as cell necrosis in liver measured after 14 days in presence of paclitaxel by H and E staining based analysis; conditions: 336 h, time 14 day
[10] = Toxicity in male BALB/c nude mouse xenografted with ABCB1 overexpressing human SW620/AD300 cells assessed as cell necrosis in spleen measured after 14 days in presence of paclitaxel by H and E staining based analysis; conditions: 336 h, time 14 day
[11] = Toxicity in male BALB/c nude mouse xenografted with ABCB1 overexpressing human SW620/AD300 cells assessed as cell necrosis in kidney at 50 mg/kg administered every 3 days and measured after 14 days by H and E staining based analysis; type: organism-based; conditions: in vivo, 336 h, time 14 day
[12] = Toxicity in male BALB/c nude mouse xenografted with ABCB1 overexpressing human SW620/AD300 cells assessed as body weight loss at 50 mg/kg administered every 3 days and measured after 14 days; type: organism-based; conditions: in vivo, 336 h, time 14 day

Compound | Ratio IC50 [1] | Activity [2] [%] | other results
Fc1ccc(-c2nccc3c2[nH]c2ccccc23)cc1 | 5.3 | >80 | –
CCc1nc(C(=O)OC)cc2c1[nH]c1ccccc12 | 1.3 | >80 | –
Oc1ccc(-c2nccc3c2[nH]c2ccccc23)cc1 | 1.6 | >80 | –
CC(C)Cc1nccc2c1[nH]c1ccccc12 | 3.2 | >80 | –
N#Cc1cccc(-c2nccc3c2[nH]c2ccccc23)c1 | 2.2 | >80 | –
N#Cc1ccc(-c2nccc3c2[nH]c2ccccc23)cc1 | 3.5 | >80 | –
Clc1cc(Cl)cc(-c2nccc3c2[nH]c2ccccc23)c1 | 7.3 | >80 | –
FC(F)(F)c1ccc(-c2nccc3c2[nH]c2ccccc23)cc1 | 3.2 | >80 | –
COc1ccc(-c2nccc3c2[nH]c2ccccc23)cc1 | 37.8 | >80 | –
CCc1ccc(-c2nccc3c2[nH]c2ccccc23)cc1 | – | <80 | –
COc1ccc(-c2nccc3c4ccccc4n(C)c23)cc1 | – | – | Activity [3]: Non-toxic; inhibition (INH) [4]: Dose-dependent-effect; Activity [5]: Non-toxic; Activity [6]: Active; Activity [7]: Non-toxic; Activity [8]: Non-toxic; Activity [9]: Non-toxic; Activity [10]: Non-toxic; Activity [11]: Non-toxic; Activity [12]: Non-toxic
CCc1ccc(-c2nccc3c4ccccc4n(CC)c23)cc1 | – | <80 | –
Cc1nc(-c2ccc(-c3nccc4c3[nH]c3ccccc34)cc2)no1 | 27.5 | >80 | –
COc1ccc2[nH]c3c(CC(C)C)nccc3c2c1 | – | <80 | –
Cc1ccc(-c2nccc3c2[nH]c2ccccc23)cc1 | – | <80 | –
CC(C)Cc1nccc2c3ccccc3n(Cc3ccccc3)c12 | 113.6 | >80 | –
CCn1c2ccccc2c2ccnc(-c3ccc(C(F)(F)F)cc3)c21 | 14.8 | >80 | –
CC(C)Cc1nc(C(=O)OCc2ccccc2)cc2c1[nH]c1ccccc12 | 4 | >80 | –
CC(C)Cc1nccc2c3ccccc3n(CC(C)C)c12 | – | <80 | –
CCOC(=O)c1cc2c([nH]c3ccccc32)c(CC(C)C)n1 | 47.4 | >80 | –
Cc1nc(-c2cccc(-c3nccc4c3[nH]c3ccccc34)c2)no1 | 3.3 | >80 | –
COc1ccc(-c2nccc3c4ccccc4n(Cc4ccccc4C)c23)cc1 | – | <80 | –
Cc1cccc2c1[nH]c1c(CC(C)C)nccc12 | – | <80 | –
COc1ccc(-c2nccc3c2[nH]c2c(C)cccc23)cc1 | – | <80 | –

Compound | Ratio IC50 [1] | Activity [2] [%] | other results
CCc1ccc(-c2nccc3c4ccccc4n(Cc4ccc(C(C)C)cc4)c23)cc1 | – | <80 | –
CCC(CC)c1nccc2c1[nH]c1ccccc12 | 31 | >80 | –
COc1ccc(-c2nccc3c4ccccc4n(Cc4ccccc4)c23)cc1 | – | <80 | –
Cn1c2ccccc2c2ccnc(-c3ccc(C(F)(F)F)cc3)c21 | 25.9 | >80 | –
CCc1ccc(-c2nc(C(=O)OCc3ccccc3)cc3c2[nH]c2ccccc23)cc1 | – | >80 | –
CCc1ccc(-c2nc(C(=O)OC)cc3c2[nH]c2ccccc23)cc1 | – | >80 | –
COc1ccc(-c2nccc3c2[nH]c2ccc(OC)cc23)cc1 | – | <80 | –
CCC(CC)c1nccc2c3ccccc3n(CC)c12 | – | <80 | –
COc1ccc(-c2nccc3c2[nH]c2cc(OC)ccc23)cc1 | – | 80 | –
COc1ccc(-c2nccc3c4ccccc4n(Cc4ccc(C)cc4)c23)cc1 | 25.6 | >80 | –
CCC(CC)c1nccc2c1[nH]c1ccc(OC)cc12 | – | <80 | –
COc1ccc(-c2nccc3c4ccccc4n(Cc4ccc(C(C)C)cc4)c23)cc1 | 26.3 | >80 | –
CCc1ccc(-c2nccc3c4ccccc4n(C)c23)cc1 | – | <80 | –
CC(C)c1ccc(-c2nccc3c2[nH]c2ccccc23)cc1 | – | <80 | –
CC(C)Cc1nccc2c3ccccc3n(C)c12 | – | <80 | –
CCc1ccc(-c2nccc3c4ccccc4n(Cc4ccccc4C)c23)cc1 | – | <80 | –
CCn1c2ccccc2c2ccnc(CC(C)C)c21 | – | <80 | –
CCn1c2ccccc2c2ccnc(-c3ccc(OC)cc3)c21 | 12.3 | >80 | –
C#CCn1c2ccccc2c2ccnc(CC(C)C)c21 | 15.9 | >80 | –
COC(=O)c1cc2c([nH]c3ccccc32)c(CC(C)C)n1 | 2.7 | >80 | –
CCc1ccc(-c2nccc3c4ccccc4n(Cc4ccc(C)cc4)c23)cc1 | 26.6 | >80 | –
COc1ccc2c(c1)[nH]c1c(CC(C)C)nccc12 | – | <80 | –
COc1cc(OC)cc(-c2nccc3c2[nH]c2ccccc23)c1 | – | <80 | –
CCC(CC)c1nccc2c3ccccc3n(C)c12 | – | <80 | –
